Common to all, as to format: biochemical
One experiment concerns the target T1, FGFR-3 (Homo sapiens, UniProt P22607).
T1 construct: human FGFR-3 from amino acids R397 to T806 as in NCBI/Protein entry NP_000133.1; purchased Proqinase 1068-0000-1; host or cells: SF9 insect cells (baculovirus)
In words: FGFR-3 kinase assay (TR-FRET). The settings on record: 10 μM ATP, 15 min pre-incubation; compounds of the invention (Table 2A).

In the next experiment the target is T2, FGFR-1 (Homo sapiens, UniProt P11362).
T2 construct: human FGFR-1 from amino acids G400 to R800 as in GenBank entry NM_015850; purchased Proqinase 0101-0000-1; host or cells: SF9 insect cells (baculovirus)
The experiment is described as follows: FGFR-1 high ATP kinase assay (TR-FRET). The note with it: 2 mM ATP, 15 min pre-incubation; compounds of the invention (Table 1A). Background: Time-resolved FRET reads energy transfer from a long-lived donor to a nearby acceptor.

Another experiment deals with T3, mTOR (Homo sapiens, UniProt P42345).
T3 construct: human mTOR amino acids from 1360 to 2549; purchased Invitrogen 4753; host or cells: insect cells
The experiment is described as follows: mTOR kinase assay (TR-FRET, for comparative purposes). The settings on record: read-out: mTOR % inhibition @ 1 μM, mean inhibition at 1 μM test compound, 40 μM ATP.

Structures are written as SMILES. Where a name gives a salt, the structure may show the parent alone.

In general, IC50 refers to the point on the concentration scale where inhibition reaches its midpoint. A higher IC50 goes with a need for much substance. A word on the inhibition: it is how much of the control response was suppressed.

T1 sequence (P22607 397-806): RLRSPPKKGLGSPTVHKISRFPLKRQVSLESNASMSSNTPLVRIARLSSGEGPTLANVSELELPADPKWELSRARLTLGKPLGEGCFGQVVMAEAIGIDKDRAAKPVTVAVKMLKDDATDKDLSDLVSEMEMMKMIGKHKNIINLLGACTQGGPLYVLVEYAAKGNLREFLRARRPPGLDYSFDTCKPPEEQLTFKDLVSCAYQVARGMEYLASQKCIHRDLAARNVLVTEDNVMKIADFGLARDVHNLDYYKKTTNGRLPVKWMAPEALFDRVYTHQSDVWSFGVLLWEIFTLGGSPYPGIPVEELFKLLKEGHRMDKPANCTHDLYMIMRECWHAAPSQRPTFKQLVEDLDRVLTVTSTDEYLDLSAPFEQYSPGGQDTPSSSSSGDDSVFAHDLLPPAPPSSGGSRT
T3 sequence (P42345 1360-2549): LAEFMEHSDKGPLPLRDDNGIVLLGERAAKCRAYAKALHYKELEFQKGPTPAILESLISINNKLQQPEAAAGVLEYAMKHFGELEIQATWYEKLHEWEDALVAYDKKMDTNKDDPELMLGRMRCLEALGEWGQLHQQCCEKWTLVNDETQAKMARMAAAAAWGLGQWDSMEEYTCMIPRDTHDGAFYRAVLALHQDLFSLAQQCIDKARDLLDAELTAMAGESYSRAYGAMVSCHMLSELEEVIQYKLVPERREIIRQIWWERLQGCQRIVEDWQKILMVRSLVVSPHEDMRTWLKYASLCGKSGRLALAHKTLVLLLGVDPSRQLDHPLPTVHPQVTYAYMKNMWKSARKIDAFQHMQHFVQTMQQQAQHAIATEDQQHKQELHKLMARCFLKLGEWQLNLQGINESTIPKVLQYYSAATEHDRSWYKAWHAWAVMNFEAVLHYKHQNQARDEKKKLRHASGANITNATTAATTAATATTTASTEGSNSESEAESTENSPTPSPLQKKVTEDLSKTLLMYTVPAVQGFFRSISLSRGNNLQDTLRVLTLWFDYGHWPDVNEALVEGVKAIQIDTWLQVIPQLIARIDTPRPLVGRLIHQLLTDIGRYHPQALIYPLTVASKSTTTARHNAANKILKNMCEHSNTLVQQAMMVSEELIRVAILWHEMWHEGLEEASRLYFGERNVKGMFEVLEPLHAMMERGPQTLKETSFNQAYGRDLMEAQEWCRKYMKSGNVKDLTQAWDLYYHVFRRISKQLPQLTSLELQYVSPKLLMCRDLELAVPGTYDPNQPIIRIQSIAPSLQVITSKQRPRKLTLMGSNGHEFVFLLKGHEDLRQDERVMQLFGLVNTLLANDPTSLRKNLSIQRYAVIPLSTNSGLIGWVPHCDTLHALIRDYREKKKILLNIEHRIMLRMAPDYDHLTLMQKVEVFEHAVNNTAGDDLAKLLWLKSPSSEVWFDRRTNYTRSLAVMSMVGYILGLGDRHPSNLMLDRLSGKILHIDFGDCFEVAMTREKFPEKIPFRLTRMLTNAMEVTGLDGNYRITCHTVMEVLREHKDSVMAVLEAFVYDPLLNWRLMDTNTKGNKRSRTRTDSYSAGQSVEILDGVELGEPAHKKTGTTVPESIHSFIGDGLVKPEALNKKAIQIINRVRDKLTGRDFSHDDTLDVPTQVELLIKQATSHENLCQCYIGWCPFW
T2 sequence (P11362 402-822): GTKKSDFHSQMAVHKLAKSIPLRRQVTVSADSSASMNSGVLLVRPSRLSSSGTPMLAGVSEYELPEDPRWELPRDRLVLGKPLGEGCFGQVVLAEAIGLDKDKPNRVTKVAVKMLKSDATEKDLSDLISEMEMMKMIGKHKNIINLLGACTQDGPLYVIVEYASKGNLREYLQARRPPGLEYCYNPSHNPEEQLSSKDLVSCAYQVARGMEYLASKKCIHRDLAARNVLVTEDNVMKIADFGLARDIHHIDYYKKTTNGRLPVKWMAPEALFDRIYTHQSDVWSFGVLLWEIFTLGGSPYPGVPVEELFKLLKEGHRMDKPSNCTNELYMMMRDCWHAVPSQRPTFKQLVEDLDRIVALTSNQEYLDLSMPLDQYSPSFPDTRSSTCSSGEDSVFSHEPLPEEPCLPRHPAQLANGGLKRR

Turning to `COc1cc(C)cc2cc(-c3c(COCCN)c(CN4CCNCC4)n4ncnc(N)c34)sc12` [Example 30, 6-[(2-Aminoethoxy)methyl]-5-(7-methoxy-5-methyl-1-benzothiophen-2-yl)-7-(piperazin-1-ylmethyl)pyrrolo[2,1-f][1,2,4]triazin-4-amine trihydrochloride], the values for the IC50 at FGFR-3 and against FGFR-1 were 6.4 nM and 2.8 nM, respectively. The inhibition at 1 µM on mTOR turned out to be 21.1%.

For the origin of these results see patent US20220153745A1, “DISUBSTITUTED BENZOTHIENYL-PYRROLOTRIAZINES AND THEIR USE AS FGFR KINASE INHIBITORS” (Bayer Intellectual Property GmbH, priority 2011, published 2022).
